# Measurements from article PMC4310329, “The length of a lantibiotic hinge region has profound influence on antimicrobial activity and host specificity” (Frontiers in Microbiology, 2015).
# Assays:
# E. faecalis VE14089 = assay: Agar well diffusion assay; assay type: cell-based, Enterococcus faecalis; conditions: estimated from halo diameter by nisin standard curve, relative to wt
# Experimental: (§1) L. lactis strains were cultured in M17 broth supplemented with 0.5% (w/v) glucose (GM17) or GM17 agar for genetic manipulation or in minimal expression medium (MEM) for protein expression at 30°C (Rink et al., [2005]). E. faecalis, S. aureus, S. pneumonia, and L. monocytogenes were grown in GM17 at 37°C or GM17 agar at different temperatures for agar diffusion assay. M. luteus was grown in Luria-Bertani broth shaken (200 rpm) at 30°C or LB agar at 20°C for agar diffusion assay. Bacillus strains were cultured in Brain Heart Infusion (BHI) shaken (200 rpm) or BHI agar at different temperatures for agar diffusion assay.
# (§2) For the agar well diffusion assay, the same cultures as in the MIC value test were used and diluted 200 times with solid media. Identical sizes of wells (7.5 mm diameter) were made and 2 μg of hinge region analogs dissolved in 20 μl 0.05% acetic acid were added. The plates were incubated at different temperatures for at least 1 day until apparent halos appeared. For activity test at low temperature, the indicators were diluted in the same way but poured into smaller plates (52 mm diameter). The plates were incubated at 4°C overnight before the peptides were added. B. sporothermodurans IC4 and B. cereus 4153 were first incubated with the peptides at 4°C for 2 weeks then moved to 30°C and incubated overnight. The diameters of the halos were measured.
# (§3) The antimicrobial activity of the hinge region analogs in solid media were tested by an agar well diffusion assay. The diameters of the halos were measured and the residual activity of the analogs were estimated according to the formula of the relationship between the concentration of nisin and the sizes of halos. We made use of the fact that the size of the halo is directly related to the log of nisin concentration. Of course this is an estimate of activity of the variants because any changes in diffusion of the variant bacteriocin or growth rates of indicator bacteria during the assay could also affect the size of the halo. (Table 5 and Supplementary Figure 1). The plates were shown in supplementary data (Supplementary Figures 2–8). […] And against L. lactis at 20°C, the inhibition zone was larger than nisin. […] The M. luteus grows quite fast at room temperature and only the +2 variant retained 55% of the activity of nisin. […]
# (§4) To evaluate the activity of nisin on the agar plate, an agar well diffusion assay with gradient of nisin against Lactococcus lactis ( with two plasmids) was performed ( Supplementary Figur e 1 A). The diameter of the halos were measured (Supplementary Figure 1B). […]
# (§5) the concentration of nisin is in liner relationship with diameter of the halos ( Supplementary Fi g u re 1C). According to the formula (1) , the relative activity of the peptides compared to nisin can be calculated b y the formula ( 2) .
# (§6) Supplementary Figure 1. Relationship between concentration of nisin and diameter of the halos. (A) Agar well diffusion assay. Gradient concentration of nisin were made and dissolved in 30µl 0.05% acetic acid. Lactococcus lactis ( with two plasmids) was cultured overnight and diluted 250 times with GM17 agar before added to the plate. The final concentration of the cells was about 2×10^6 cells/milliliter. The plate was incubated for 1 da y. Concentrations of nisin were labeled. (B) log10 of the concentrati ons and diameters of the halo. (C) A linear curve w as made betw een t he diameters of the halo and log10s of the concentration of nisin.
# (§7) (1 picture or pasted object on this page, not shown here)
# (§8) Last Name a uthor 1 et al. Running Title
# (§9) C = concentration of nisin d° = diameter of the halo of wild t ype […]
# L. lactis MG1363 = assay: Agar well diffusion assay; assay type: cell-based, Lactococcus lactis; conditions: relative to wt
# Experimental: as §1, §2, §3, §4, §5, §6, §7, §8, §9
# S. aureus = assay: Agar well diffusion assay; assay type: cell-based, Staphylococcus aureus; conditions: 20 °C; estimated from halo diameter by nisin standard curve, relative to wt
# Experimental: as §1, §2, §3, §4, §5
# as §6, with “nisin. […]” for “nisin.”
# L. monocytogenes = assay: Agar well diffusion assay; assay type: cell-based, Listeria monocytogenes; conditions: estimated from halo diameter by nisin standard curve, relative to wt
# Experimental: as §1, §2, §3, §4, §5, §6, §7, §8, §9
# M. luteus = assay: Agar well diffusion assay; assay type: cell-based, Micrococcus luteus; conditions: 20 °C; estimated from halo diameter by nisin standard curve, relative to wt
# Experimental: as §1, §2, §3, §4, §5
# as §6, with “nisin. […]” for “nisin.”
# [1] = tested on: Lactococcus lactis MG1363; assay: MIC in liquid culture; assay type: cell-based; conditions: MIC value of nisin divided by that of the analog
# Experimental: as §1
# (§10) The indicator strains were cultured until OD (600 nm) reached 0.5. Before MIC value test, the culture was diluted 1000 times to make the concentration of cells around 5 × 10^5 per milliliter. The test was performed using a temperature controlled plate reader [Tecan200 (Tecan Group AG)] and 96 well plate (Greiner Bio-one). 180 μl indicator strain culture mixed with 20 μl hinge region analogs with final concentration from 0.031 μg/ml–32 μg/ml was incubated at 30°C or 37°C for 18 h. OD (600 nm) was checked every 30 min. For aerobic strains, 2 min of shaking was performed before every check. The concentration of peptide without observed growth of indicator strains was considered as the MIC value.
# Micrococcus luteus = assay: MIC in liquid culture; assay type: cell-based; conditions: MIC value of nisin divided by that of the analog
# Experimental: as §1, §10
# [2] = tested on: Streptococcus pneumoniae R6; assay: MIC in liquid culture; assay type: cell-based; conditions: MIC value of nisin divided by that of the analog
# Experimental: as §1, §10
# Bacillus cereus 4153 = assay: MIC in liquid culture; assay type: cell-based; conditions: MIC value of nisin divided by that of the analog
# Experimental: as §1, §10
# Listeria monocytogenes = assay: MIC in liquid culture; assay type: cell-based; conditions: MIC value of nisin divided by that of the analog
# Experimental: as §1, §10
# [3] = tested on: Bacillus cereus (L′29) 16; assay: MIC in liquid culture; assay type: cell-based; conditions: MIC value of nisin divided by that of the analog
# Experimental: as §1, §10
# Bacillus cereus 4147 = assay: MIC in liquid culture; assay type: cell-based; conditions: MIC value of nisin divided by that of the analog
# Experimental: as §1, §10
# Staphylococcus aureus = assay: MIC in liquid culture; assay type: cell-based; conditions: MIC value of nisin divided by that of the analog
# Experimental: as §1, §10
# B. sporothermodurans IC4 = assay: Agar well diffusion assay; assay type: cell-based, Bacillus sporothermodurans; conditions: 30 °C; estimated from halo diameter by nisin standard curve, relative to wt
# Experimental: as §1
# as §2, with “B. sporothermodurans IC4 and B. cereus 4153 were first incubated with the peptides at 4°C for 2 weeks then moved to 30°C and incubated overnight.” left out
# The antimicrobial activity of the hinge region analogs in solid media were tested by an agar well diffusion assay. The diameters of the halos were measured and the residual activity of the analogs were estimated according to the formula of the relationship between the concentration of nisin and the sizes of halos. […]
# as §4
# the concentration of nisin is in liner relationship with diameter of the halos ( Supplementary Fi g u re 1C). According to the formula (1) , the relative activity of the peptides compared to nisin can be calculated b y the formula ( 2) . […]
# [4] = tested on: Bacillus sporothermodurans IC4; assay: MIC in liquid culture; assay type: cell-based; conditions: MIC value of nisin divided by that of the analog
# Experimental: as §1, §10
# [5] = tested on: Enterococcus faecalis VE14089; assay: MIC in liquid culture; assay type: cell-based; conditions: MIC value of nisin divided by that of the analog
# Experimental: as §1, §10
# [6] = 20 °C, estimated from halo diameter by nisin standard curve (halo diameter vs log of nisin concentration)
# [7] = 30 °C, estimated from halo diameter by nisin standard curve
SMILES,Residual activity (E. faecalis VE14089; 20 °C) [%],Residual activity (E. faecalis VE14089; 37 °C) [%],Residual activity (L. lactis MG1363; [6]) [%],Residual activity (S. aureus) [%],Residual activity (L. monocytogenes; 20 °C) [%],Residual activity (M. luteus) [%],Residual activity of variants compared to nisin [1] [%],Residual activity of variants compared to nisin (Micrococcus luteus) [%],Residual activity of variants compared to nisin [2] [%],Residual activity of variants compared to nisin (Bacillus cereus 4153) [%],Residual activity of variants compared to nisin (Listeria monocytogenes) [%],Residual activity of variants compared to nisin [3] [%],Residual activity of variants compared to nisin (Bacillus cereus 4147) [%],Residual activity of variants compared to nisin (Staphylococcus aureus) [%],Residual activity (E. faecalis VE14089; 30 °C) [%],Residual activity (L. lactis MG1363; [7]) [%],Residual activity (L. monocytogenes; 30 °C) [%],Residual activity (B. sporothermodurans IC4) [%],Residual activity of variants compared to nisin [4] [%],Residual activity of variants compared to nisin [5] [%]
C=C(NC(=O)[C@@H](NC(=O)[C@H](Cc1c[nH]cn1)NC(=O)[C@@H](NC(=O)[C@H](CO)NC(=O)[C@@H]1CS[C@@H](C)[C@H]2NC(=O)[C@H](C)NC(=O)[C@H](NC(=O)[C@H](CCCCN)NC(=O)[C@H](CCSC)NC(=O)[C@H](CC(C)C)NC(=O)[C@H](CC(N)=O)NC(=O)[C@@H]3CS[C@@H](C)[C@@H](NC(=O)[C@H](CCCCN)NC(=O)[C@@H]4CS[C@@H](C)[C@@H](NC(=O)[C@@H]5CSC[C@@H](NC(=O)/C(=C/C)NC(=O)[C@@H](N)[C@@H](C)CC)C(=O)N[C@@H]([C@@H](C)CC)C(=O)NC(=C)C(=O)N[C@@H](CC(C)C)C(=O)N5)C(=O)N5CCC[C@H]5C(=O)NCC(=O)N4)C(=O)NCC(=O)N[C@@H](C)C(=O)N[C@@H](CC(C)C)C(=O)N[C@@H](CCSC)C(=O)NCC(=O)N3)[C@H](C)SC[C@H](NC2=O)C(=O)N[C@@H](Cc2c[nH]cn2)C(=O)N1)[C@@H](C)CC)C(C)C)C(=O)N[C@@H](CCCCN)C(=O)O [+1],72,82,122,27,72,9,25,25,17,25,25,25,25,6,,,,,,
C=C(NC(=O)[C@@H](NC(=O)[C@H](Cc1c[nH]cn1)NC(=O)[C@@H](NC(=O)[C@H](CO)NC(=O)[C@@H]1CS[C@@H](C)[C@H]2NC(=O)[C@H](C)NC(=O)[C@H](NC(=O)[C@H](CCCCN)NC(=O)[C@H](CCSC)NC(=O)[C@H](CC(C)C)NC(=O)[C@@H](NC(=O)[C@@H](NC(=O)[C@H](CC(N)=O)NC(=O)[C@@H]3CS[C@@H](C)[C@@H](NC(=O)[C@H](CCCCN)NC(=O)[C@@H]4CS[C@@H](C)[C@@H](NC(=O)[C@@H]5CSC[C@@H](NC(=O)/C(=C/C)NC(=O)[C@@H](N)[C@@H](C)CC)C(=O)N[C@@H]([C@@H](C)CC)C(=O)NC(=C)C(=O)N[C@@H](CC(C)C)C(=O)N5)C(=O)N5CCC[C@H]5C(=O)NCC(=O)N4)C(=O)NCC(=O)N[C@@H](C)C(=O)N[C@@H](CC(C)C)C(=O)N[C@@H](CCSC)C(=O)NCC(=O)N3)[C@@H](C)CC)C(C)C)[C@H](C)SC[C@H](NC2=O)C(=O)N[C@@H](Cc2c[nH]cn2)C(=O)N1)[C@@H](C)CC)C(C)C)C(=O)N[C@@H](CCCCN)C(=O)O [+3],6,14,5,0,3,7,13,25,13,13,<25,13,25,<3,9,3,3,10,17,<21
C=C(NC(=O)[C@@H](NC(=O)[C@H](Cc1c[nH]cn1)NC(=O)[C@@H](NC(=O)[C@H](CO)NC(=O)[C@@H]1CS[C@@H](C)[C@H]2NC(=O)[C@H](C)NC(=O)[C@H](NC(=O)[C@H](CC(N)=O)NC(=O)[C@@H]3CS[C@@H](C)[C@@H](NC(=O)[C@H](CCCCN)NC(=O)[C@@H]4CS[C@@H](C)[C@@H](NC(=O)[C@@H]5CSC[C@@H](NC(=O)/C(=C/C)NC(=O)[C@@H](N)[C@@H](C)CC)C(=O)N[C@@H]([C@@H](C)CC)C(=O)NC(=C)C(=O)N[C@@H](CC(C)C)C(=O)N5)C(=O)N5CCC[C@H]5C(=O)NCC(=O)N4)C(=O)NCC(=O)N[C@@H](C)C(=O)N[C@@H](CC(C)C)C(=O)N[C@@H](CCSC)C(=O)NCC(=O)N3)[C@H](C)SC[C@H](NC2=O)C(=O)N[C@@H](Cc2c[nH]cn2)C(=O)N1)[C@@H](C)CC)C(C)C)C(=O)N[C@@H](CCCCN)C(=O)O [−2],36,76,120,16,82,0,6,<25,13,<13,<25,<13,<13,<3,77,91,76,,13,<6
